The source of these data is the NIST ThermoML archive (doi:10.1021/acs.jced.6b00149).

A short description of the series: refractive index (Na D-line) (dimensionless). Particulars: 298.15 K; 101.33 kPa; Liquid; Standard Abbe refractometry.

± gives the expanded uncertainty stated by the source.

Take `O=Cc1ccco1` [2-furaldehyde]: the refractive index (usually the speed of light in vacuum divided by its phase velocity in the sample) came to 1.52263 ± 0.001.

In the case of `COC(C)(C)C` [2-methoxy-2-methylpropane], the refractive index amounted to 1.36594 ± 0.001.

In the case of `CC(C)=O` [acetone], the refractive index is reported as 1.35553 ± 0.001.

Consider `O` [water], for which the refractive index amounted to 1.33249 ± 0.001.
